Experiments:
[1] = in vivo; cited from earlier work
[2] = Orthostatic challenges before and after subcutaneous GIP (1-42) or placebo in fasted healthy subjects: heart rate, blood pressure and clinical signs; type: in vivo, human
Experimental: Synthetic human GIP (1-42) (GIP) (PolyPeptide Group, Strasbourg, France) was dissolved in a sodium hydrogen carbonate buffer with 0.5% human serum albumin in NaCl 9 mg/ml to a final concentration of 4 mg/ml. The solution was sterile filtered and dispensed into glass ampoules. On the appropriate study days, the GIP solutions were further diluted in saline (NaCl 9 mg/ml) to 125 μg/ml. Saline (NaCl 9 mg/mL) was used as placebo.
At the beginning of each study day, participants were weighed and received either a placebo injection or a weight-dependent GIP (1-42) dose of 2.7 μg/kg at time 0.
Four healthy, non-medicated participants between 33-40 years old (one male and three females) were included in the study. On each of the two study days, participants arrived after an overnight fast (at least 10 h fasting). To enable continuous heart rate monitoring, three electrodes compatible with the Holter Spiderview recorder were placed over the rib at V5, on the xiphoid muscle at the bottom of the sternum, and at the sternum over the manubrium after the skin was disinfected or shaved and disinfected for the male. Baseline characterization was initiated at timepoint-60 min and lasted for one hour. For baseline characterization, the participants alternated between the supine position and 10 min orthostatic challenges initiated at timepoints −45 min and −20 min. Orthostatic challenges were elicited by actively standing up from the hospital bed. At timepoint 0 min, the participants received a subcutaneous injection of either 2.7 μg/kg GIP or saline in a single-blinded manner. Following the injection, the participants rested in the supine position for one hour when not doing 10 min orthostatic challenges initiated at 15 min and 40 min post-injection. At time points −50 min, −40 min, −30 min, 10 min, 20 min, 45 min, and 55 min systolic- and diastolic blood pressure as well as heart rate were measured using the Omron M2 blood pressure monitor. The two study days were identical except for the injection of either GIP or saline. Fasting prior to administration of GIP mimics the body's natural response to eating, as eating induces GIP secretion. The method employed thus mimics fasting or postprandial conditions with the emphasis on GIP's physiological effects.

YAEGTFISDYSIAMDKIHQQDFVNWLLAQKGKKNDWKHNITQ [GIP]
half-life [1]: ~ 4 min | effect on orthostatic tolerance (conclusion) ([2]; by decreasing SBP and DBP and increasing heart rate, in men and women): significantly worsens orthostatic tolerance | subjects who experienced presyncope and had to lay down ([2]; first orthostatic challenge following GIP administration, four subjects, 2.7 μg/kg s.c.): one of the subjects | increase in heart rate over baseline supine levels, during the orthostatic challenge ([2]; four healthy fasted subjects, 2.7 μg/kg GIP (1-42) s.c., orthostatic challenge, Omron M2 monitor, FIG. 1): 36 bpm | increase in heart rate over baseline supine levels, supine position ([2]; four healthy fasted subjects, 2.7 μg/kg GIP (1-42) s.c., supine, Omron M2 monitor, FIG. 1): 17 bpm | change in DBP during the orthostatic challenge compared to placebo levels ([2]; four healthy fasted subjects, 2.7 μg/kg s.c., orthostatic challenge, FIG. 5): −13 mmHg | decrease in SBP during the orthostatic challenges compared to placebo levels ([2]; four healthy fasted subjects, 2.7 μg/kg s.c., orthostatic challenges, FIG. 4): 12 mmHg | decrease in SBP in the supine position compared to placebo levels ([2]; four healthy fasted subjects, 2.7 μg/kg s.c., supine, FIG. 4): 4-5 mmHg | change in DBP in the supine position compared to placebo levels ([2]; four healthy fasted subjects, 2.7 μg/kg s.c., supine, FIG. 5): −10 mmHg | subjects who reported significant dizziness and lightheadedness ([2]; orthostatic challenges post GIP-injection, 2.7 μg/kg s.c.): Three out of four subjects | increase in heart rate compared to baseline supine heart rate during the first orthostatic challenge post injection (Holter monitor) ([2]; two subjects, 2.7 μg/kg s.c., first orthostatic challenge post injection, FIGS. 2 and 3): 49-50 bpm | gradual increase in supine heart rate compared to baseline supine heart rate (Holter monitor) ([2]; two subjects, 2.7 μg/kg s.c., within 15 min, range depends on the subject, FIGS. 2 and 3): 19-28 bpm
